# Measured values taken from patent US9844560B2, “Use of ginsenoside M1 for treating lupus nephritis” (priority 2014, dated 2017).
# Experiments:
# Assay type in all cases: in vivo, NZB/W F1 mice
# [1] = system: accelerated severe lupus nephritis (ASLN) mouse model; experiment: Renal histopathology (H&E) in ASLN mouse model; settings: ASLN mice, H&E light microscopy, FIG. 2
# Experimental: An accelerated severe lupus nephritis (ASLN) mouse model was established in 8-week-old female NZB/W F1 mice by twice weekly intraperitoneal injection of lipopolysaccharide (LPS, 20 mg/kg body weight) (Sigma, NO, USA) as described in Shui et al., 2007 [51]. Two days after first dose of LPS for the ASLN induction, the mice were divided into two groups of more than 6 mice each and daily administrated with ginsenoside M1 or vehicle (normal saline) via oral gavage till mice sacrificed. 8-Week-old NZB/W F1 female mice (prior to onset of autoantibody production), injected with normal saline, were used as normal controls. All mice were killed at week 5 after disease induction. […]
# Renal tissues were formalin-fixed, embedded in paraffin, and sections (3 μm) prepared and stained with hematoxylin and eosin (H&E) for renal histopathology as described previously. Quantitative analysis was performed by optical microscopy (Olympus BX51, Reflected Fluorescence System, Japan). The examination of renal pathology and scoring were performed in a blinded manner by a pathologist, and the severity of renal lesions was scored. The percentage of glomeruli showing proliferation, neutrophil infiltration, crescent formation, fibrinoid necrosis, and periglomerular inflammation was calculated from at least 100 randomly sampled glomeruli.
# [2] = system: accelerated severe lupus nephritis (ASLN) mouse model; experiment: Urine protein, hematuria and renal function in ASLN mouse model
# Experimental: An accelerated severe lupus nephritis (ASLN) mouse model was established in 8-week-old female NZB/W F1 mice by twice weekly intraperitoneal injection of lipopolysaccharide (LPS, 20 mg/kg body weight) (Sigma, NO, USA) as described in Shui et al., 2007 [51]. Two days after first dose of LPS for the ASLN induction, the mice were divided into two groups of more than 6 mice each and daily administrated with ginsenoside M1 or vehicle (normal saline) via oral gavage till mice sacrificed. 8-Week-old NZB/W F1 female mice (prior to onset of autoantibody production), injected with normal saline, were used as normal controls. All mice were killed at week 5 after disease induction. The tissue specimens of spleen, renal cortical tissue, blood, and urine were collected at the indicated times and stored appropriately before analysis. Urine samples were collected in metabolic cages every week and urine protein levels were measured, and serum samples were collected to measure serum levels of blood urea nitrogen (BUN) and creatinine (Cr) as described previously (Ka, S. M. et al. Decoy receptor 3 ameliorates an autoimmune crescentic glomerulonephritis model in mice. J Am Soc Nephrol 18:2473-2485; 2007).
# [3] = system: Toll-like receptor (TLR)7 gene expression; experiment: Real-time RT-PCR of renal cortex TLR7 mRNA in ASLN mice; settings: normalized to GAPDH, vs ASLN group, p<0.01, FIG. 7
# Experimental: (§1) An accelerated severe lupus nephritis (ASLN) mouse model was established in 8-week-old female NZB/W F1 mice by twice weekly intraperitoneal injection of lipopolysaccharide (LPS, 20 mg/kg body weight) (Sigma, NO, USA) as described in Shui et al., 2007 [51]. Two days after first dose of LPS for the ASLN induction, the mice were divided into two groups of more than 6 mice each and daily administrated with ginsenoside M1 or vehicle (normal saline) via oral gavage till mice sacrificed. 8-Week-old NZB/W F1 female mice (prior to onset of autoantibody production), injected with normal saline, were used as normal controls. All mice were killed at week 5 after disease induction. The tissue specimens of spleen, renal cortical tissue, blood, and urine were collected at the indicated times and stored appropriately before analysis.
# Renal cortex RNA was extracted using TRIzol reagent (Invitrogen) according to the manufacturer's instructions, and real-time reverse transcription-polymerase chain reaction (RT-PCR) was used to measure Toll-like receptor (TLR)7 gene expression. Real-time quantification was performed using a Bio-Rad iCycler iQ system according to the manufacturer's instructions. Amplifications were normalized to the values for GAPDH using the 2^−ΔCt method.
# [4] = system: serum inflammatory cytokines; experiment: Serum cytokine detection (Cytometric Bead Array) in ASLN mice; settings: vs ASLN group
# Experimental: as §1
# To detect the level of IFN-γ, MCP-1, IL-12 p70, IL-6, TNF-α and IL-10 in serum by using BD Cytometric Bead Array Mouse Inflammation kit (BD Biosciences), according to the standard protocol, followed by flow cytometry (BD Biosciences).
# [5] = system: anti-dsDNA antibodies; experiment: Serum anti-dsDNA antibodies (ELISA) in ASLN mice; settings: vs ASLN group, p<0.01, FIG. 3
# Experimental: as §1
# Serum levels of anti-dsDNA antibodies were measured using an anti-mouse dsDNA enzyme-linked immunosorbent assay (ELISA) kit (Alpha Diagnostic, TX, USA) according to the manufacturer's instructions. The absorbance at 450 nm was measured using an ELISA plate reader (Bio-Tek, VT, USA).
# [6] = system: T cells in splenocytes; experiment: T cell proliferation in splenocytes of ASLN mice (3H-methyl thymidine); settings: anti-CD3 stimulated splenocytes, vs ASLN group, p<0.01, FIG. 6
# Experimental: as §1
# Splenocytes from the mice were prepared as described previously, then were cultured in triplicate in wells (2.5×10^5 cells/well) in 96-well flat-bottom microtiter plates previously coated overnight at 4° C. with 0.25 μg/ml anti-mouse CD3 (145-2C11) antibodies (BD Biosciences). After 48 h, the cultures were pulsed with […] of ^3H-methyl thymidine (Amersham Pharmacia Biotech, Piscataway, N.J.) and harvested 16-18 h later, and the incorporated ^3H-methyl thymidine was measured using a Top Count (Packard, PerkinElmer, Boston, Mass.) as described previously.
# [7] = system: renal ROS production; experiment: Reactive oxygen species (superoxide anion, DHE labeling) in kidney of ASLN mice
# Experimental: as §1
# Kidney in situ superoxide anion production was determined by dihydroethidium (DHE) labeling. Fluorescent images were quantified by counting the percentage of positive nuclei in the total nuclei per kidney cross-section. Superoxide anion levels in serum and kidney tissues were measured as described previously and the results expressed as reactive luminescence units (RLU) per 15 min per milligram dry weight (i.e., RLU/15 min/mg dry weight).
structure (smiles),measurement,setting,value
"CC(C)=CCC[C@](C)(O[C@@H]1OC(CO)[C@@H](O)[C@@H](O)C1O)[C@H]1CC[C@]2(C)C1[C@H](O)CC1[C@@]3(C)CC[C@H](O)C(C)(C)C3CC[C@]12C (stereo partly drawn) [ginsenoside M1, 20-O-β-D-glucopyranosyl-20(S)-protopanaxadiol]","renal lesions (neutrocyte infiltration, crescent-like formation, periglomerular inflammation, tubular atrophy, proteinaceous casts, fibrinoid necrosis)","[1]; vs ASLN+vehicle, all p<0.005",greatly decreased
same,glomerular proliferation,[1],mild glomerular proliferation was present
same,serum level of BUN,"[2]; ASLN mice, daily oral gavage, vs ASLN group, p<0.05, FIG. 1C",significantly decreased
same,serum level of creatinine,"[2]; ASLN mice, daily oral gavage, vs ASLN group, p<0.05, FIG. 1D",significantly decreased
same,proteinuria (urine albumin/creatinine ratio),"[2]; ASLN mice, daily oral gavage, vs ASLN group, FIG. 1A",significantly decreased
same,hematuria,"[2]; ASLN mice, daily oral gavage, vs ASLN group, FIG. 1B",significantly decreased
same,development of lupus nephritis (overall conclusion),[2]; summary of the ASLN mouse study,effective in preventing development of lupus nephritis
same,renal mRNA levels of TLR7,[3],significantly decreased
same,serum MCP-1,"[4]; p<0.005, FIG. 5B",significantly decreased
same,serum IL-12 p70,"[4]; p<0.005, FIG. 5C",significantly decreased
same,serum IL-6,"[4]; p<0.005, FIG. 5D",significantly decreased
same,serum TNFα,"[4]; p<0.005, FIG. 5E",significantly decreased
same,serum IL-10,"[4]; p<0.005, FIG. 5F",significantly decreased
same,serum IFN-γ,"[4]; p<0.01, FIG. 5A",significant decreased
same,serum anti-dsDNA antibody level,[5],significantly decreased
same,proliferation of T cells in splenocytes,[6],significant decreased
same,renal ROS production (superoxide anion levels in renal tissues),"[7]; vs ASLN group, p<0.01, FIG. 4A",significantly decreased
same,DHE fluorescence intensity (in situ ROS production in kidney),"[7]; week 3, FIGS. 4B and 4C",very low
same,DHE fluorescence intensity (in situ ROS production in kidney),"[7]; week 5, FIGS. 4B and 4C",very low
